Like-named read-outs stand apart in the source and are kept apart here.
Experiments:
Assay type in all cases: cell-based
[1] = tested on: 5-HETE biosynthesized by glycogen-stimulated polymorphonuclear leucocytes (PMNs); assay: Hydroxyacid Profile Assay (HPA): inhibition of 5-HETE synthesis in glycogen-elicited rabbit PMNs; conditions: Oryctolagus cuniculus, Leucocyte; for inhibition at 100 µM: read-out: Percent Inhibition (100 μM)
Protocol: As previously noted 5-HETE biosynthesis serves as a marker for arachidonic acid metabolism via the 5-lipoxygenase pathway which produces (poly)hydroxyeicosatetraenoic acids and the potent bronchoconstrictor and vasoactive leukotrienes LTC4, LTD4 and LTE4.
Buffer A (8.70 g NaCl; 0.27 g KCl; 0.42 g Na2 HPO4; 0.76 g KH2 PO4; and 1.00 g dextrose per liter H2 O; pH 7.0) (0.325 ml) is introduced into each of a battery of screwtop culture tubes. Then, a solution of a compound (0.100 ml) to be assayed is dispensed into individual tubes. Assays are performed in duplicate at 100 μM and 10 μM concentrations. Control tubes receive Buffer A (0 100 ml) in lieu of compound. Next, rabbit PMNs (2×10^7 cells/tube; 4×10^7cells/ml) (0.500 ml) are added to each tube. The rabbit PMN's used are elicited with glycogen and made into a preparation substantially as described by F. Hirata. et al (1979) Proc. Natl. Acad. Sci. USA, 76, 2640-2643. The tubes are vortexed and preincubated in a shaking 37° C. water bath for 15 minutes.
Thereafter, the tubes are removed from the water bath and calcium ionophore solution (400 μg/ml A-23187; Sigma Chemical Co., St. Louis, Mo.) (0.025 ml), ^14 C-arachidonic acid (0.25 μCi in 0.025 ethanol; New England Nuclear Products, Boston, Mass.) (0.025 ml) and calcium chloride solution (CaCl2.2H2 O ); 105.8 mg/10 […]) (0.025 ml) are added in that order. The tubes are vortexed and returned to the water bath for 30 minutes. The reaction is then terminated by the addition of HCl (0.8N, 0.025 ml).
Extraction and concentration of ^14 C-labeled 5-HETE is performed as follows. First, solution containing 2 parts ethyl acetate, 3 parts CH2 Cl2 and 0.01 ml unlabeled arachidonic acid is added (5.01 ml) to each tube. The tubes are capped and briefly vortexed. The contents of each tube is poured into a polypropylene column fitted with a porous polyethylene disc and Whatman phase separation filter paper. The organic phase is collected by gravity filtration into a conical centrifuge tube, While the aqueous phase is retained in the column by the phase separation paper. Each culture tube is rinsed once with the EtOAc:CH2 Cl2 solution (1.0 ml) and the wash added to the column. The organic phase is concentrated to (0.5 ml) using a Savant Speed Vac concentrator (Savant Instruments, Inc., Hicksville, N.Y.).
After concentration of the organic phase, the tubes are vortexed and stored covered on ice. An aliquot (0.01 ml) is then removed for liquid scintillation counting in a Beckman LS7500 Liquid Scintillation Counter (Beckman Instruments Corp., Fullerton, Calif.). Based on the count, the number of μl containing 1×10^5 cpm is calculated. This volume is applied to a silica gel covered glass plate in a 10 mm streak. The remaining fluid in the tube is measured via syringe and noted.
The TLC plate is placed in a chromatography chamber containing the following solvent system: CHCl3 :MeOH:HOAc:H2 O (v/v;90: 9:1:0.65). The plate is then air dried and counted on a Berthold Linear TLC Analyzer (Berthold Instruments, Inc., Pittsburgh, Pa.) for 30 minutes per lane if a dose response curve had been run, or for 5 min per lane if drug screening had been done. The integrated area of the 5-HETE band for each compound is converted to percent of control and analyzed. The percent inhibition at 100 μM compound concentration and the concentration (μM) which produces a 50% inhibition of 5-HETE synthesis (IC50), are determined for those compounds described in Examples 1-36, and are reported in Table 1 .

guinea pig ileal strips [2] = assay: Modified Schultz-Dale Assay: inhibition of antigen-induced anaphylactic contraction of passively sensitized ileal strips; conditions: Cavia porcellus; for IC50: value in parentheses
Protocol: In the classic Schultz-Dale assay, guinea pigs are sensitized with a known immunogen or passively sensitized with guinea pig antiserum to the immunogen, strips of ilea are recovered, and the extent of their contraction in response to a challenge exposure to the same antigen is observed as a measure of anaphylactic response. The experiments described here follow this same procedure while exposing the ileal strips to test compound before exposure to antigen challenge (preincubation) and, in some strips, also after antigen challenge (postincubation).
The male Hartley strain guinea pigs (450-650 g) whose ilea are used in this Schultz-Dale assay are passively sensitized with IgE antiovalbumin antiserum as follows. The antiserum is developed in another group of similar guinea pigs as described in Graziano, et al., J. Immunol. 127:1067-1070 (1981) and pooled. The test animals are then each passively sensitized by subcutaneous injection of the pooled antiserum (1 ml).
About 2-7 days after sensitization, the guinea pigs are sacrificed and the terminal ilea are removed. They are cut into strips (6 cm) and positioned in tissue baths (5 ml) of Tyrode's solution with atropine (1 μg/ml) at 37° C. One end of each strip is fixed to an immobile post and the other movably mounted to a Grass Ft. 0.03 linear force displacement transducer and a Grass Model 7 polygraph. The tension is set (at 1 gram) and the tissue is allowed to equilibrate (10 minutes). Tissue viability is tested by establishing a consistent response to histamine (0.5 μg/ml). After several histamine-induced contractions, mepyramine (1 μg/ml) is added to inhibit any contractions due to the anaphylactic release of endogenous histamine.
A minimum of 3 animals are used for each compound tested and, of the 6 strips from each animal, 2 strips are incubated (preincubation) with a test compound (final concentration 75 μM), 2 with an appropriate reference standard (BW-755C at 75 μM) and 2 with saline solution (control) for a predetermined period (5 minutes). After this initial incubation period, ovalbumin (100 μg/ml) is added to each bath and the resulting anaphylactic contraction measured. The data are recorded as of tension produced by the tissue in excess of the 1 gram tension that was initially set. At the peak of the contraction, a dose of the same test compound (75 μM) is added (postincubation) to one control strip and reference standard (FPL-55712 at 1.9 μM). The strips are monitored (1 minute) and any effect on the established contraction is recorded as described above.
Two types of data are derived from the above protocol. First, pre-antigen inhibition (prechallenge) is expressed as the percent inhibition in each of the strips preincubated with test compound measured against the averaged contractions of the two control strips. Prechallenge inhibition by the reference standard is also determined in each experiment as a positive control. The reference used consistently gives 60-80% inhibition. Second, post-antigen inhibition (postchallenge) is determined by measuring the decrease in anaphylactic contraction of a control strip produced by adding either a test compound or standard at the peak of the contraction. The reference used consistently gives 70-90% inhibition. The data in each experiment, therefore, consists of 2 prechallenge and 1 postchallenge value for both test compound and standard.

guinea pig ileal strips [3] = assay: as above; conditions: Cavia porcellus, **tested at 20 μg/ml
[4] = added at peak of contraction after antigen, read-out: Postchallenge IC50
[5] = preincubation before ovalbumin antigen, read-out: Prechallenge IC50
[6] = added at peak of contraction after antigen, read-out: Postchallenge mean percent inhibition
[7] = preincubation before ovalbumin antigen, read-out: Prechallenge mean percent inhibition

| SMILES | inhibition at 100 µM ([1]; 5-HETE synthesis) | IC50 ([1]; read-out: IC50 (50% inhibition of 5-HETE synthesis)) | IC50 (guinea pig ileal strips [2]; [4]) | IC50 (guinea pig ileal strips [2]; [5]) | inhibition at 20 µg/mL (guinea pig ileal strips [3]; [6]) | inhibition at 20 µg/mL (guinea pig ileal strips [3]; [7]) | inhibition at 75 µM (guinea pig ileal strips [2]; [6]) | inhibition at 75 µM (guinea pig ileal strips [2]; [7]) | inhibition at 10 µM ([1]; at 10 μM, 5-HETE synthesis, read-out: Percent Inhibition) |
| --- | --- | --- | --- | --- | --- | --- | --- | --- | --- |
| CCCCCCCc1ccc(C(=O)CCCCC(=O)O)cc1 [Example 1, 5-(4-n-Heptylbenzoyl)pentanoic acid] | 78% | 30 µM | 48 µM | 27 µM | 68% | 81% | – | – | – |
| CCCCCc1ccc(C(=O)CCCC(=O)O)cc1 [Example 3, 4-(4-n-Pentylbenzoyl)butanoic acid] | 0% | – | – | – | 47% | 65% | – | – | – |
| CCCCCc1ccc(C(=O)CCC(=O)O)cc1 [Example 4, 3-(4-n-Pentylbenzoyl)propanoic acid] | 65% | – | – | – | 49% | 65% | – | – | – |
| CCCCCCCCCc1ccc(C(=O)CCCCC(=O)O)cc1 [Example 9, 5-(4-n-Nonylbenzoyl)pentanoic acid] | 79% | – | – | – | 2% | 33% | – | – | – |
| CCCCCCCCCCc1ccc(C(=O)CCCCC(=O)O)cc1 [Example 10, 5-(4-n-Decylbenzoyl)pentanoic acid] | 88% | – | – | – | 11% | 7% | – | – | – |
| CCCCCCCCCCCCCCc1ccc(C(=O)CCCCC(=O)O)cc1 [Example 11, 5-(4-n-Tetradecylbenzoyl)pentanoic acid] | 76% | – | – | – | 14% | 1% | – | – | – |
| CCCCCCOc1ccc(C(=O)CCCCC(=O)O)cc1 [Example 12, 5-(4-n-Hexyloxybenzoyl)pentanoic acid] | 75% | – | – | – | 18% | 70% | – | – | – |
| CCCCCCCCc1ccc(C(=O)Cc2cccc(C(=O)O)c2)cc1 [Example 19, 3-(4-n-Octylphenacyl)benzoic acid] | < 44% | – | > 75 µM | 51 µM | – | – | 30% | 78% | – |
| Cc1ccc(C(=O)CCCCC(=O)O)cc1 [Example 21, 5-(4-Methylbenzoyl)pentanoic acid] | – | – | – | – | 11% | 29% | – | – | 0% |
| CCCCCCCc1ccc(C(=O)CC(C)(C)CC(=O)O)cc1 [Example 24, 4-(4-Heptylbenzoyl)-3,3-dimethylbutanoic acid] | 51% | – | 40 µM | 26 µM | – | – | 43% | 84% | – |
| CCCCOc1ccc(C(=O)c2cccc(C(=O)O)c2)c(OC)c1 [Example 25, 3-(4-Butoxy-2-methoxybenzoyl)benzoic acid] | 70% | – | 14 µM | 22 µM | – | – | 46% | 84% | – |
| COc1ccc(C(=O)c2cccc(C(=O)O)c2)c(O)c1 [Example 27, 3-(2-Hydroxy-4-methoxybenzoyl)benzoic acid] | 31% | – | – | – | – | – | 14% | 58% | – |
| CCCCCCOc1ccc(C(=O)c2cccc(C(=O)O)c2)c(C)c1 [Example 29, 3-(4-n-Hexyloxy-2-methylbenzoyl)-benzoic acid] | 88% | – | – | – | – | – | 38% | 86% | – |
| Cc1ccc(C(=O)c2cccc(C(=O)O)c2)c(O)c1 [Example 30, 3-(2-Hydroxy-4-methylbenzoyl)benzoic acid] | 47% | – | – | – | – | – | 6% | 26% | – |
| CCCCOc1ccc(C(=O)CCCCC(=O)O)cc1 [Example 33, 5-(4-n-Butoxybenzoyl)pentanoic acid] | 49% | – | – | – | – | – | 29% | 63% | – |
| CCCCCCCc1ccc(C(=O)CCCC(=O)O)cc1 [Example 34, 4-(4-n-Heptylbenzoyl)butanoic acid] | 76% | – | – | 14 µM | – | – | 39% | 79% | – |
| O=C(O)c1cccc(C(=O)c2ccc(C3CCCCC3)cc2)c1 [Example 35, 3-(4-Cyclohexylbenzoyl)benzoic acid] | 63% | – | > 75 µM | 38 µM | – | – | 43% | 66% | – |

Reference: US5504244A, “Alkylarylketo acids” (Boehringer Ingelheim Pharmaceuticals, Inc., priority 1993, dated 1996)
